Experimental data: patent publication US5183821A, “Method for treating leukemias using N-(2-dimethylaminoethyl)-3-amino-1,8-naphthalimide for treating leukemias and solid tumors” (priority 1991, dated 1993)
“Also recorded” adds a separate entry of the source.

Key:
L-1210 Lymphoid Leukemia [1] = assay: NCI screen, L-1210 Lymphoid Leukemia, intraperitoneal (summary); type: in vivo, Mouse; conditions: for dosage range over which activity was observed: i.p. L1210, ILS≥25%; for Table II evaluation: full wrapped cell: Activity substantially greater than the minimal
Text: (§1) The activity of the compound has been evaluated by experiments carried out under the auspices of the Division of Cancer Treatment, National Cancer Institute, employing techniques considered to be reliable indicators of chemotherapeutic utility in the treatment of forms of cancer in human patients. The details of the methodology employed in the reported experiments may be determined with reference to established NCI screening methods.
(§2) In the experiments conducted by the NCI, evaluation of activity is made on the basis of appropriate parameters, such as median survival time (MST) or change in average tumor diameter (CATD)in ocular micrometer units (OMU).

M5076 ovarian carcinoma = assay: NCI screen, M5076 ovarian carcinoma, intraperitoneal (summary); type: in vivo, Mouse; conditions: for Antitumor activity in words: M5076
Text: as §1, with “methods. In the experiments conducted by the NCI, evaluation of activity is made on the basis of appropriate parameters, such as median survival time (MST) or change in average tumor diameter (CATD)in ocular micrometer units (OMU).” for “methods.”

CX-1 colon xenograft = assay: NCI screen, CX-1 colon xenograft, renal capsule (summary); type: in vivo, human tumor xenograft in athymic mice; conditions: for Antitumor activity in words: CX-1 colon xenograft
Text: as §1, §2

[2] = set-up: species or system human
Text: Further studies were done using heparinized plasma (two additional human donors) and with EDTA plasma (one donor). […] Human EDTA plasma was compatible with drug at a 1:32 drug/plasma ratio.

L-1210 Lymphoid leukemia [3] = assay: Experiment 8: L-1210 s.c., 10^6 cells, acid diluted with saline, female; type: in vivo, Mouse CD2 F (CDF1)
Text: Tumor: L-1210 Lymphoid leukemia
(§3) Inoculum Site: Subcutaneous
Vehicle: Acid diluted with saline
Treatment schedule (relative to tumor inoculation day) daily on days 1-9
Day of evaluation (relative to tumor inoculation day): 30
Parameter: Median survival time (MST) in days
NCI minimal activity criteria: Percent T/C≥125
(§4) Percent T/C: Ratio of test (T) evaluation to control (C) evaluation expressed as a percentage

Colon 38 [4] = assay: Experiment 13: Colon 38 s.c., saline with Tween-80, male; type: in vivo, Mouse B6 D2 F1 (BDF1)
Text: (§5) Host: Mouse B6 D2 F1 (BDF1)
as §3
(§6) Vehicle: Saline with Tween-80
(§7) Treatment schedule (relative to tumor inoculation day): Days 2 and 9
(§8) Day of evaluation (relative to tumor inoculation day): 20
(§9) Parameter: Median tumor weight (MTW) estimated from tumor diameter
(§10) NCI minimal activity criteria: Percent T/C≤42
as §4

Colon 38 [5] = assay: Experiment 14: Colon 38 s.c., saline with Tween-80, female; type: in vivo, Mouse B6 D2 F1 (BDF1)
Text: as §5, §3, §6, §7, §8, §9, §10, §4

Fischer 344 rats = assay: Five daily dose rat toxicity study; type: in vivo
Method: Preclinical toxicity studies of BIDA were completed in CD2F1 Mice, Fischer 344 rats and beagle dogs (4). The animals were injected IV with a single bolus or daily for five days.
A preclinical toxicology study of benzisoquinolinedione (NSC-308847) was done at Springborn Institute for Bioresearch, Inc. using CD2 F1 mice, Fischer 344 rats and beagle dogs. Animals were injected intravenously on a single dose (X1) or five daily dose (X5) regimen. Bulk drug was titrated with 0.5N HCl to form a salt solution of benzisoquinolinedione at a pH of 5.0-6.5. Sterile 0.9% saline was used for diluting the dosing solutions and was used for the vehicle control animals.
The following summarizes the major organ toxicities resulting from IV administration of benzisoquinolinedione to rats.

## CN(C)CCN1C(=O)c2cccc3cc(N)cc(c23)C1=O [Example 9, 1H-Benz[de]isoquinoline-1,3(2H)-dione, 5-amino-2-[2-(dimethylamino)ethyl]]
L-1210 Lymphoid Leukemia [1]; listed as BIDA
  dosage range over which activity was observed: two-fold dosing range
L-1210 Lymphoid Leukemia [1]; listed as the compound
  dosage range over which activity was observed: two-fold dosage range
L-1210 Lymphoid Leukemia [1]; ip, 16 mg/kg
  mean optimal increased life span (ILS): 96%
  optimal increased life spans (ILS): 75-117%
L-1210 Lymphoid Leukemia [1]; mean survival time, 12 tests
  Table II evaluation: Activity
L-1210 Lymphoid Leukemia [1]; median survival time, 21 tests
  Table II evaluation: Activity
L-1210 Lymphoid Leukemia [1]; p.o. or I.V.
  activity by other routes: is retained when given p.o. or I.V.
L-1210 Lymphoid Leukemia [1]; solution in 0.1 N HCl diluted with saline
  ILS: 117%
M5076 ovarian carcinoma; listed as BIDA
  Antitumor activity in words: Activity was seen
M5076 ovarian carcinoma; listed as the compound
  Antitumor activity in words: activity substantially greater than the level considered to be of minimal interest; also recorded: exceeded the minimal level of activity for clinical interest
M5076 ovarian carcinoma; mean survival time, 15 tests, full wrapped cell: Activity Substantially greater than the minimal
  Table II evaluation: Activity
CX-1 colon xenograft; listed as BIDA
  Antitumor activity in words: No activity was seen
CX-1 colon xenograft; listed as the compound
  Antitumor activity in words: not active
CX-1 colon xenograft; change in average tumor diameter, 4 tests, full wrapped cell: Activity not confirmed
  Table II evaluation: Activity not
[2]
  blood compatibility: compatible
L-1210 Lymphoid leukemia [3]; 5.00 mg/kg i.p.
  Median survival time (MST): 9.0 days
  Percent T/C: 105%
L-1210 Lymphoid leukemia [3]; 7.00 mg/kg i.p.
  Median survival time (MST): 9.8 days
  Percent T/C: 110%
L-1210 Lymphoid leukemia [3]; 10.00 mg/kg i.p.
  Median survival time (MST): 10.7 days
  Percent T/C: 125%
L-1210 Lymphoid leukemia [3]; 16.00 mg/kg i.p.
  Median survival time (MST): 12.3 days
  Percent T/C: 144%
L-1210 Lymphoid leukemia [3]; 24.00 mg/kg i.p.
  Median survival time (MST): 31.3 days
  Percent T/C: 132%
Colon 38 [4]; 16.00 mg/kg i.p.
  Median tumor weight (MTW): 2474
  Percent T/C: 102%
Colon 38 [4]; 32.00 mg/kg i.p.
  Median tumor weight (MTW): 1146
  Percent T/C: 47%
Colon 38 [4]; 64.00 mg/kg i.p.
  Median tumor weight (MTW): 700
  Percent T/C: 29%
Colon 38 [4]; 128.00 mg/kg i.p.
  Median tumor weight (MTW): Deaths before evaluation
Colon 38 [5]; 2.00 mg/kg i.p.
  Median tumor weight (MTW): 2141
  Percent T/C: 111%
Colon 38 [5]; 4.00 mg/kg i.p.
  Median tumor weight (MTW): 1872
  Percent T/C: 97%
Colon 38 [5]; 8.00 mg/kg i.p.
  Median tumor weight (MTW): 1687
  Percent T/C: 87%
Colon 38 [5]; 16.00 mg/kg i.p.
  Median tumor weight (MTW): 2748
  Percent T/C: 142%
Colon 38 [5]; 32.00 mg/kg i.p.
  Median tumor weight (MTW): 1013
  Percent T/C: 52%
Colon 38 [5]; 64.00 mg/kg i.p.
  Median tumor weight (MTW): 1132
  Percent T/C: 58%
Fischer 344 rats; 6.0 mg/kg
  gross or microscopic lesions: No drug-related gross or microscopic lesions were found
Fischer 344 rats; 6.0 mg/kg/day (1/2MELD10)
  Mortality / lethality: 0/20
